# Earlier results, collected in patent US20200199640A1, “PROCESS FOR OBTAINING […] A HOST CELL COMPRISING POLYNUCLEOTIDES ENCODING FOR PO[…] IN THE OMPHALOTIN BIOSYNTHESIS” (TECHNISCHE UNIVERSITÄT BERLIN, priority 2017, published 2020).
# Non-standard residues stand in square brackets, D forms with d. Residues, ends and D or L forms follow the SMILES beside them. ξ: configuration not given here. NMeIle(3ξ) = CCC(C)[C@H](NC)C(=O)O; Ile(3ξ) = CCC(C)[C@H](N)C(=O)O; NMeV = CN[C@H](C(=O)O)C(C)C; Sar = CNCC(=O)O
# Experiments:
# [1] = literature statement (A. Mayer et al, Pestic. Sci. 1999, 55, 27-30)
# [2] = literature statement (A. Mayer et al, Pestic. Sci. 1999, 55, 27-30); remark: listed apart in the source
# Meloidogyne incognita = conditions: literature statement (A. Mayer et al, Pestic. Sci. 1999, 55, 27-30)
# [3] = literature statement (A. Mayer et al, Pestic. Sci. 1999, 55, 27-30); remark: listed apart in the source
structure (smiles),measurement,setting,value
CCC(C)[C@@H]1NC(=O)[C@H](C(C)C)N(C)C(=O)[C@H](Cc2c[nH]c3ccccc23)NC(=O)CN(C)C(=O)[C@H](C(C)CC)N(C)C(=O)[C@H](C(C)C)NC(=O)CN(C)C(=O)[C@H](C(C)CC)N(C)C(=O)[C@H](C(C)C)N(C)C(=O)CN(C)C(=O)[C@H](C(C)C)N(C)C(=O)[C@H](C(C)C)N(C)C1=O (stereo partly shown) [Omphalotin A] (cyclo([Ile(3ξ)][NMeV][NMeV][Sar][NMeV][NMeIle(3ξ)][Sar]V[NMeIle(3ξ)][Sar]W[NMeV])),phytotoxic activity,[1],"no further phytotoxic, antibacterial or antifungal activities"
same,antibacterial activity,[2],"no further phytotoxic, antibacterial or antifungal activities"
same,activity against the plant pathogen nematode Meloidogyne incognita,Meloidogyne incognita,strong and selective activity
same,antifungal activity,[3],"no further phytotoxic, antibacterial or antifungal activities"
